Measured values from patent US20220315554A1, “COMPOUNDS COMPRISING A […] LIGAND AND USE THEREOF” (priority 2019, published 2022).
Numbered stars: 1 amine (or outer) side, 2 acyl side, 3 side chain; on linkers, the order of the positions; unused ones are H or OH. Bridge positions count the residues as written; N and C are the ends. Square brackets hold non-standard residues; d marks the D form. Peptide text beside a SMILES is read from it. * marks the point of attachment. ξ: configuration not given here. TBMB(SCH2CH2NH-DOTA) = O=C(O)CN1CCN(CC(=O)O)CCN(CC(=O)NCCSCc2cc(C[*:1])cc(C[*:2])c2)CCN(CC(=O)O)CC1; X24 = NCCNCC(CNCCN)C(=O)N[C@@H](CCC(=O)NC[C@H](O)[C@@H](O)[C@H](O)[C@H](O)CO)C(=O)NCCCOCCOCCOCCCN*; X9 = NCCNCC(CNCCN)C(=O)N[C@@H](CCC(=O)O)C(=O)NCCCOCCOCCOCCCN*; X10 = O=C([C@H](CCCc1cccc(C[*:3])c1)N[*:1])[*:2]; mXylylene = c1cc(C[*:1])cc(C[*:2])c1; PEG6 = NCCOCCOCCOCCOCCOCCOCCC(=O)O; Suc = O=C(CCC(=O)[*:2])[*:1]; X18 = NCCNCC(CNCCN)C(=O)*; Nle = CCCC[C@H](N)C(=O)O; Hexanoyl = CCCCCC(=O)*; ξM = CSCCC(N)C(=O)O

Columns and labels:
[1] = target: T1, FAP-expressing human WI-38 fibroblasts (Homo sapiens, UniProt Q12884); experiment: Competitive FACS binding assay; details: pIC50 Category (FACS), competition with 3 nM Cy5-labeled compound, 4° C., 1 hour
T1 construct: FAP-expressing human WI-38 fibroblasts (ECACC) were cultured in EMEM; host or cells: WI-38 human fibroblasts
T1 sequence (Q12884 1-760): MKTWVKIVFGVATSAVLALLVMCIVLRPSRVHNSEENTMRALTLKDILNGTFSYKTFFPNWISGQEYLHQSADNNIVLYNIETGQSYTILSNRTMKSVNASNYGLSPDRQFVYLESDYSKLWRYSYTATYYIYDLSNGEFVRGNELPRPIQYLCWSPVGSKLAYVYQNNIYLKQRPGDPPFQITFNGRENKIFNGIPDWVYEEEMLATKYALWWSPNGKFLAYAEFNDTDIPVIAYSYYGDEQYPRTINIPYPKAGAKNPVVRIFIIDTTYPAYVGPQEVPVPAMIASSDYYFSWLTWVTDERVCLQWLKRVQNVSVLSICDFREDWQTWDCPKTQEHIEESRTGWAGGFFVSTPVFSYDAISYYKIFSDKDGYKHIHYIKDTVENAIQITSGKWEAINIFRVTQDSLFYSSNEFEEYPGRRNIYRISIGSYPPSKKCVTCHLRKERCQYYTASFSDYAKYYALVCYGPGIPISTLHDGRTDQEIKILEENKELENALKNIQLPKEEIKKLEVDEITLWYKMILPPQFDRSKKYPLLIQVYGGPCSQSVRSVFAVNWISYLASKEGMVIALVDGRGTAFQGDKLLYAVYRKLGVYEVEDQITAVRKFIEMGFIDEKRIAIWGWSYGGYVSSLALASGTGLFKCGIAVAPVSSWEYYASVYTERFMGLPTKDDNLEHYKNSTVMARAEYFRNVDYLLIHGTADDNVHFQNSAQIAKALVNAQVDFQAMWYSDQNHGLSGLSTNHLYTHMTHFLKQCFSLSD
Method: Cells were analyzed in an Attune NxT flow cytometer. […]

Human recombinant FAP [2] = target: T2, Human recombinant FAP (Homo sapiens, UniProt Q12884); experiment: FRET-based FAP protease activity assay; type: biochemical; parameters: purchased R&D systems 3715-SE; details: pIC50 Category (Activity), FRET substrate, 37° C.
T2 sequence (Q12884 1-760): T1 sequence (Q12884 1-760)

[3] = Plasma stability assay, mouse plasma; type: in vitro ADME; details: 4 h incubation, 37° C., read-out: % intact compound remaining after incubation, Mouse plasma
Human recombinant FAP [4] = target: T2, Human recombinant FAP; experiment: Surface plasmon resonance (Biacore) assay; type: binding

Compound	IC50 ([1]; WI-38 fibroblasts)	IC50 (Human recombinant FAP [2]; recombinant human FAP)	remaining at 4 h, 9.8 µM [3]	IC50 [1]	IC50 (Human recombinant FAP [2])	Kd (Human recombinant FAP [4])
CSCC[C@H](NC(C)=O)C(=O)N[C@H]1CSCc2cccc(c2)CSC[C@@H](C(=O)N[C@@H](CC(=O)O)C(=O)N[C@@H](Cc2c[nH]cn2)C(=O)N[C@@H](Cc2ccccc2)C(=O)N[C@@H](CCCNC(=N)N)C(=O)N[C@@H](CC(=O)O)C(N)=O)NC(=O)[C@H](Cc2ccccc2)NC(=O)[C@H](CCC(=O)O)NC(=O)[C@H]([C@@H](C)O)NC(=O)[C@H]2CCCN2C(=O)[C@@H]2CCCN2C1=O [3BP-3177, Ac-Met-[Cys(3MeBn)-Pro-pro-Thr-Glu-Phe-Cys]-Asp-His-Phe-Arg-Asp-NH2] (Ac-MCP[dP]TEFCDHFRD-NH2; linker 2-8 via mXylylene)	10 to 79.4 nM	10 to 79.4 nM	79%	–	–	–
CSCC[C@H](NC(C)=O)C(=O)N[C@@H]1CSCc2cccc(c2)CSC[C@H](C(=O)N[C@@H](CC(=O)O)C(=O)N[C@@H](Cc2c[nH]cn2)C(=O)N[C@@H](Cc2ccccc2)C(=O)N[C@@H](CCCNC(=N)N)C(=O)N[C@@H](CC(=O)O)C(N)=O)NC(=O)[C@H](Cc2ccccc2)NC(=O)[C@H](CCC(=O)O)NC(=O)[C@H]([C@@H](C)O)NC(=O)[C@@H]2CCCN2C(=O)[C@@H]2CCCN2C1=O [3BP-3181, Ac-Metqcys(3MeBn)-Pro-Pro-Thr-Glu-Phe-cys]-Asp-His-Phe-Arg-Asp-NH2] (Ac-M[dC]PPTEF[dC]DHFRD-NH2; linker 2-8 via mXylylene)	–	–	100%	–	–	–
CSCC[C@H](NC(C)=O)C(=O)N[C@H]1CSCc2cccc(c2)CSC[C@@H](C(=O)N[C@@H](CC(=O)O)C(=O)N[C@@H](Cc2c[nH]cn2)C(=O)N(C)[C@@H](Cc2ccccc2)C(=O)N[C@@H](CCCNC(=N)N)C(=O)N[C@@H](CC(=O)O)C(N)=O)NC(=O)[C@H](Cc2ccccc2)NC(=O)[C@H](CCC(=O)O)NC(=O)[C@H]2NC(=O)[C@@H]3C(CCN3C(=O)[C@@H]3CCCN3C1=O)[C@H]2O [3BP-3188, Ac-Met-[Cys(3MeBn)-Pro-Pro-Thr-Glu-Phe-Cys]-Asp-His-Nmf-Arg-Asp-NH2]	< 10 nM	< 10 nM	97%	–	–	–
CSCC[C@H](NC(C)=O)C(=O)N[C@H]1CSCc2cccc(c2)CSC[C@@H](C(=O)N[C@@H](CC(=O)O)C(=O)N[C@@H](Cc2c[nH]cn2)C(=O)N2Cc3ccccc3C[C@H]2C(=O)N[C@@H](CCCNC(=N)N)C(=O)N[C@@H](CC(=O)O)C(N)=O)NC(=O)[C@H](Cc2ccccc2)NC(=O)[C@H](CCC(=O)O)NC(=O)[C@H]2NC(=O)[C@@H]3C(CCN3C(=O)[C@@H]3CCCN3C1=O)[C@H]2O [3BP-3189, Ac-Met-[Cys(3MeBn)-Pro-Pro-Thr-Glu-Phe-Cys]-Asp-His-Tic-Arg-Asp-NH2]	< 10 nM	< 10 nM	100%	–	–	–
CCCCCC(=O)N[C@H]1CSCc2cc(CSCCNC(=O)CC[C@@H]3C(=O)[O][Ga]([O]C(=O)CN(C)CC)[O]C(=O)CN(C)CCN3CC)cc(c2)CSC[C@@H](C(=O)O)NC(=O)[C@H](Cc2ccccc2)NC(=O)[C@H](CCC(N)=O)NC(=O)[C@H]([C@@H](C)O)NC(=O)[C@@H]2CCCN2C(=O)[C@@H]2CCCN2C1=O [3BP-4184, Gallium-Complex of Hex-[Cys(tMeBn(NODAGA-AET))-Pro-Pro-Thr-Gln-Phe-Cys]-OH]	–	–	–	< 10 nM	< 10 nM	< 10 nM
CCCCCC(=O)N[C@H]1CSCc2cc(CSCCNC(=O)COCCOCCNC(=O)CC[C@H](C(=O)O)N3CCN(CC(=O)O)CCN(CC(=O)O)CC3)cc(c2)CSC[C@@H](C(=O)O)NC(=O)[C@H](Cc2ccccc2)NC(=O)[C@H](CCC(N)=O)NC(=O)[C@H]([C@@H](C)O)NC(=O)[C@@H]2CCCN2C(=O)[C@@H]2CCCN2C1=O [3BP-4251, Hex-[Cys-(tMeBn(NODAGA-O2Oc-AET))-Pro-Pro-Thr-Gln-Phe-Cys]-OH]	–	–	–	< 10 nM	< 10 nM	< 10 nM

Further lines, results first:

IC50 ([1]; WI-38 fibroblasts)	IC50 (Human recombinant FAP [2]; recombinant human FAP)	remaining at 4 h, 9.8 µM [3]	IC50 [1]	IC50 (Human recombinant FAP [2])	Kd (Human recombinant FAP [4])	Compound
< 10 nM	< 10 nM	93%	–	–	–	CSCCC(N)C(=O)N[C@H]1CSCc2cccc(c2)CSC[C@@H](C(=O)N[C@@H](CC(=O)O)C(=O)N[C@@H](Cc2c[nH]cn2)C(=O)N[C@@H](Cc2ccccc2)C(=O)N[C@@H](CCCNC(=N)N)C(=O)N[C@@H](CC(=O)O)C(N)=O)NC(=O)[C@H](Cc2ccccc2)NC(=O)[C@H](CCC(=O)O)NC(=O)[C@H]([C@@H](C)O)NC(=O)[C@@H]2CCCN2C(=O)[C@@H]2CCCN2C1=O (stereo partly drawn) [3BP-2976, H-met-[Cys(3MeBn)-Pro-Pro-Thr-Glu-Phe-Cys]-Asp-His-Phe-Arg-Asp-NH2] (H-[ξM]CPPTEFCDHFRD-NH2; linker 2-8 via mXylylene)
10 to 79.4 nM	10 to 79.4 nM	98%	–	–	–	CSCC[C@H](NC(C)=O)C(=O)N[C@H]1CSCc2cccc(c2)CSC[C@@H](C(=O)N[C@H](CC(=O)O)C(=O)N[C@@H](Cc2c[nH]cn2)C(=O)N[C@@H](Cc2ccccc2)C(=O)N[C@@H](CCCNC(=N)N)C(=O)N[C@@H](CC(=O)O)C(N)=O)NC(=O)[C@H](Cc2ccccc2)NC(=O)[C@H](CCC(=O)O)NC(=O)[C@H]([C@@H](C)O)NC(=O)[C@@H]2CCCN2C(=O)[C@@H]2CCCN2C1=O [3BP-3183, Ac-Met-[Cys(3MeBn)-Pro-Pro-Thr-Glu-Phe-Cys]-asp-His-Phe-Arg-Asp-NH2] (Ac-MCPPTEFC[dD]HFRD-NH2; linker 2-8 via mXylylene)
–	–	–	10 to 79.4 nM	< 10 nM	< 10 nM	CCCC[C@H](NC(=O)CCC(=O)NCCCOCCOCCOCCCNC(=O)C(CNCCN)CNCCN)C(=O)N[C@H]1CSCc2cccc(c2)CSC[C@@H](C(=O)O)NC(=O)[C@H](Cc2ccccc2)NC(=O)[C@H](CCC(N)=O)NC(=O)[C@H]([C@@H](C)O)NC(=O)[C@@H]2CCCN2C(=O)[C@@H]2CCCN2C1=O [3BP-4219, N4Ac-Ttds-Nle-[Cys-(3MeBn)-Pro-Pro-Thr-Gln-Phe-Cys]-OH]
–	–	–	10 to 79.4 nM	10 to 79.4 nM	< 10 nM	CCCC[C@H](NC(=O)CCOCCOCCOCCOCCOCCOCCNC(=O)C(CNCCN)CNCCN)C(=O)N[C@H]1CSCc2cccc(c2)CSC[C@@H](C(=O)O)NC(=O)[C@H](Cc2ccccc2)NC(=O)[C@H](CCC(=O)O)NC(=O)[C@H]([C@@H](C)O)NC(=O)[C@@H]2CCCN2C(=O)[C@@H]2CCCN2C1=O [3BP-4221, N4Ac-PEG6-Nle-[Cys-(3MeBn)-Pro-Pro-Thr-Glu-Phe-Cys]-OH] ({X18-PEG6}-[Nle]CPPTEFC-OH; linker 2-8 via mXylylene)
–	–	–	10 to 79.4 nM	10 to 79.4 nM	< 10 nM	CCCC[C@H](NC(=O)CCC(=O)NCCCOCCOCCOCCCNC(=O)[C@H](CCC(=O)O)NC(=O)C(CNCCN)CNCCN)C(=O)N[C@H]1CSCc2cccc(c2)CCC[C@@H](C(=O)O)NC(=O)[C@H](Cc2ccccc2)NC(=O)[C@H](CCC(=O)O)NC(=O)[C@H]([C@@H](C)O)NC(=O)[C@@H]2CCCN2C(=O)[C@@H]2CCCN2C1=O [3BP-4222, N4Ac-Glu-Ttds-Nle-[Cys-(3MeBn)-Pro-Pro-Thr-Glu-Phe-Cys]-OH] ({X9-Suc}-[Nle]CPPTEF[X10]-OH; thioether 2-8)
–	–	–	10 to 79.4 nM	10 to 79.4 nM	< 10 nM	CCCC[C@H](NC(=O)CCC(=O)NCCCOCCOCCOCCCNC(=O)[C@H](CCC(=O)NC[C@H](O)[C@@H](O)[C@H](O)[C@H](O)CO)NC(=O)C(CNCCN)CNCCN)C(=O)N[C@H]1CSCc2cccc(c2)CSC[C@@H](C(=O)O)NC(=O)[C@H](Cc2ccccc2)NC(=O)[C@H](CCC(=O)O)NC(=O)[C@H]([C@@H](C)O)NC(=O)[C@@H]2CCCN2C(=O)[C@@H]2CCCN2C1=O [3BP-4246, N4Ac-Glu(AGLU)-Ttds-Nle-[Cys-(3MeBn)-Pro-Pro-Thr-Gln-Phe-Cys]-OH] ({X24-Suc}-[Nle]CPPTEFC-OH; linker 2-8 via mXylylene)
–	–	–	< 10 nM	10 to 79.4 nM	< 10 nM	CCCCCC(=O)N[C@H]1CSCc2cc(CSCCNC(=O)CN3CCN(CC(=O)O)CCN(CC(=O)O)CCN(CC(=O)O)CC3)cc(c2)CSC[C@@H](C(=O)O)NC(=O)[C@H](Cc2ccccc2)NC(=O)[C@H](CCC(=O)O)NC(=O)[C@H]([C@@H](C)O)NC(=O)[C@@H]2CCCN2C(=O)[C@@H]2CCCN2C1=O [3BP-4250, Hex-[Cys-(tMeBn(DOTA-AET))-Pro-Pro-Thr-Glu-Phe-Cys]-OH] (Hexanoyl-CPPTEFC-OH; linker 1-7 via TBMB(SCH2CH2NH-DOTA))
